Assay results reported in US20250375436A1, “SERDEXMETHYLPHENIDATE FOR TREATMENT OF IDIOPATHIC HYPERSOMNIA” (ZEVRA THERAPEUTICS, INC., priority 2024, published 2025).

Assays:
adults with IH [1] = test: Phase 2 IH study: Epworth Sleepiness Scale (ESS); format: in vivo, human; settings: for ESS, Difference in LS Mean (SE): SDX vs placebo, ANCOVA
From the text: “Epworth Sleepiness Scale” or “ESS,” as it relates to the present technology, means a self-administered questionnaire with 8 questions. Respondents are asked to rate, on a 4-point scale (0-3), their usual chances of dozing off or falling asleep while engaged in eight different activities. Most people engage in those activities at least occasionally, although not necessarily every day. The ESS score (the sum of 8 item scores, 0-3) can range from 0 to 24. The higher the ESS score, the higher that person's average sleep propensity in daily life (ASP), or their ‘daytime sleepiness’. ESS score are generally interpreted as follows: 0-5, lower normal daytime sleepiness; 6-10 higher normal daytime sleepiness; 11-12, mild excessive daytime sleepiness; 13-15, moderate excessive daytime sleepiness; and 16-24, severe excessive daytime sleepiness. [https://epworthsleepinessscale.com/about-theess/]herein incorporated by reference.
(§1) A double-blind, placebo-controlled, randomized-withdrawal, dose-optimizing, multi-center study investigated the safety and efficacy of serdexmethylphenidate for the treatment of IH. Twenty-two (22) patients completed a 7-week study consisting of two parts. Part 1 of the trial comprised a five-week open-label titration phase during which patients were optimized to one of four total daily doses of serdexmethylphenidate (80, 160, 240, or 320 mg/day). About half the study participants were assigned to take the total daily dose of study drug once per day just before going to bed (QD dosing cohort). The other half was instructed to take half the daily dose of study drug in the morning after awakening and the second half of the daily dose just before going to bed (BID dosing cohort). The titration procedure during the 5-week open label period was conducted as follows: patient treatment was initiated with the lowest total daily dose (80 mg/day) regardless of dosing regimen. At subsequent clinical visits scheduled at intervals of about 1 week each, the dose of the patient was either decreased (except after the first week), maintained, or increased based on tolerability, clinical effect, and adverse events. Depending on the severities of any dose-limiting effects as determined by the clinician, the dose was decreased if possible or the patient was discontinued from the study. If the dose was tolerated by the patient and the clinician determined an opportunity to improve effectiveness, the dose of study drug was increased if possible. Otherwise, the dose was maintained in the subsequent week.
(§2) Part 2 of the trial comprised a two-week randomized (2:1), double-blind, withdrawal phase, during which two-thirds of the trial participants continued to receive their optimized dose while the remaining one-third received placebo. During the withdrawal phase, patients continued the same dosing regimen (QD or BID) they were assigned to at treatment initiation and adhered to during the titration phase.
(§3) Secondary efficacy endpoints included Excessive Daytime Sleepiness (EDS) assessed with the Epworth Sleepiness Scale (ESS). Additional secondary endpoints were based on the Idiopathic Hypersomnia Severity Scale (IHSS), daily rating of difficulty of waking up in the morning assessed with the Sleep Inertia Visual Analog Scale (SI-VAS), and rating of brain fog symptoms measured with an exploratory Brain Fog Scale (BFS). Scores on the ESS, IHSS, and BFS were based on a 1-week look-back period.
The minimally clinically important difference for the ESS scale is 2-3 points. The horizontal dashed line at an ESS score of 10 points marks the boundary between “normal” levels of daytime sleepiness and “excessive” levels of daytime sleepiness. Scores of 10 and less are generally considered “healthy” or “normal” levels of daytime sleepiness whereas scores greater than 10 are considered “excessive”.

[2] = Comparator study with Ritalin: plasma d-MPH PK; format: in vivo, human; settings: for CL/F - Geo Mean: plasma d-MPH
Protocol: Ritalin is a racemate of d-methylphenidate approved for treating narcolepsy, which is a similar disorder of hypersomnolence characterized by significant excessive daytime sleepiness. The PK profiles of patient administered 80 mg or 200 mg of serdexmethylphenidate are compared to the PK profiles of patients administered 40 mg of Ritalin twice, 5 hours apart, and a single dose of 80 mg of Ritalin.

[3] = Single oral dose of 240 mg serdexmethylphenidate in the morning or at night before bedtime, randomized crossover; plasma d-MPH PK by LC/MS-MS; format: in vivo, human; settings: evening vs morning dosing
Protocol: Heathy adult subjects received single oral doses of 240 mg serdexmethylphenidate, either in the morning or at night, just before bedtime, in a randomized crossover fashion with a washout of 6 days between treatments. Subjects went to bed and nighttime conditions were maintained after administration of the evening dose. Multiple blood PK samples and safety parameters were collected after each administration. d-MPH was measured with a validated LC/MS-MS method. A total of 15 subjects (9 males/6 females) were randomized with 14 completing both treatments.

adults with IH [4] = test: Phase 2 IH study: Sleep Inertia Visual Analog Scale (SI-VAS); format: in vivo, human; settings: for SI-VAS, Mean, Titration Baseline: before treatment; for SI-VAS, Mean, Randomization Baseline (Week 5): end of open-label titration; for SI-VAS, Difference in LS Mean (SE): SDX vs placebo, ANCOVA; for Decrease in mean SI-VAS score: 5-week titration period
From the text: “Sleep Inertia Visual Analog Scale” or “SI-VAS,” as it relates to the present technology, is a psychometric response scale to assess how difficult it was for the patient to wake up in the morning. The SI-VAS is a unipolar scale anchored at 0 (“very easy”) and 100 (“very difficult”).
as §1, §2, §3
The SI-VAS is a unipolar scale anchored at 0 (“very easy”) and 100 (“very difficult”). The horizontal dashed line at an SI-VAS score of 50 points represents the midpoint between individuals finding it very easy to awaken and individuals finding it very difficult to awaken in the morning. SI-VAS Patients on the QD dosing schedule reported a decrease of about 33 points in mean SI-VAS score over the 5-week titration period while being treated with conjugate of d-methylphenidate, while patients on the BID dosing schedule reported a decrease in mean SI-VAS of about 24-30 points.

[5] = Comparison of serdexmethylphenidate to other prescription treatments for sleep disorders (key attributes)
From the text: The data presented in the preceding examples supports the conclusion that serdexmethylphenidate has several advantages over other treatments for IH.
Most importantly, serdexmethylphenidate improves IH, EDS, SI, and BF symptoms; none of the other treatment options in Table 6 improve symptoms in all of the instant sleep disorder. […] Additionally, serdexmethylphenidate has advantageous dosing amounts and dosing schedules compared to both XYWAV® and LUMRYZ®. For example, XYWAV® requires two nighttime dosages, whereas serdexmethylphenidate reduces sleep disorder symptoms with only a single dose before bedtime.

[6] = single 80 mg and single 200 mg doses

SMILES: COC(=O)[C@H](c1ccccc1)[C@H]1CCCCN1C(=O)OC[n+]1cccc(C(=O)N[C@@H](CO)C(=O)O)c1 [SDX, serdexmethylphenidate]
- ESS, Difference in LS Mean (SE) (adults with IH [1]; BID Cohort, p-value 0.005): −5.6 (1.88)
- ESS, Mean Change from Randomization Baseline to Week 7 (adults with IH [1]; QD Cohort, SDX (N = 15)): 0.0
- ESS, Mean, End of Withdrawal Period (Week 7) (adults with IH [1]; QD Cohort, SDX (N = 15)): 7.5
- ESS, Mean, Titration Baseline (adults with IH [1]; QD Cohort, SDX (N = 15), before treatment): 16.9
- ESS, Mean, Randomization Baseline (Week 5) (adults with IH [1]; QD Cohort, SDX (N = 15), end of open-label titration): 7.5
- ESS, Difference in LS Mean (SE) (adults with IH [1]; QD Cohort, p-value 0.818): 0.5 (2.07)
- Decrease in mean ESS score (adults with IH [1]; both QD and BID cohorts, end of the 5-week titration period): 8-10 points
- CL/F - Geo Mean ([2]; SDX 80 mg (N = 14)): (283) L/h
- CL/F - Geo Mean ([2]; SDX 200 mg (N = 14)): (304) L/h
- AUC0-24 and AUCinf compared to Ritalin [2, 6]: higher
- Cmax concentrations compared to Ritalin [2, 6]: lower
- Tmax compared to Ritalin [2, 6]: longer
- Total plasma exposure to d-methylphenidate (AUC0-24h and AUCinf) [3]: similar
- SI-VAS, Mean Change from Randomization Baseline to Week 7 (adults with IH [4]; BID Cohort, SDX (N = 17)): 1.1
- SI-VAS, Mean, End of Withdrawal Period (Week 7) (adults with IH [4]; BID Cohort, SDX (N = 17)): 49.0
- SI-VAS, Mean, Titration Baseline (adults with IH [4]; BID Cohort, SDX (N = 17)): 68.5
- SI-VAS, Mean, Randomization Baseline (Week 5) (adults with IH [4]; BID Cohort, SDX (N = 17)): 45.0
- SI-VAS, Difference in LS Mean (SE) (adults with IH [4]; BID Cohort, p-value 0.104): −10.0 (5.98)
- Decrease in mean SI-VAS score (adults with IH [4]; BID dosing schedule): 24-30 points
- SI-VAS, Mean Change from Randomization Baseline to Week 7 (adults with IH [4]; QD Cohort, SDX (N = 15)): 5.9
- SI-VAS, Mean, End of Withdrawal Period (Week 7) (adults with IH [4]; QD Cohort, SDX (N = 15)): 40.4
- SI-VAS, Mean, Titration Baseline (adults with IH [4]; QD Cohort, SDX (N = 15)): 68.8
- SI-VAS, Mean, Randomization Baseline (Week 5) (adults with IH [4]; QD Cohort, SDX (N = 15)): 35.1
- SI-VAS, Difference in LS Mean (SE) (adults with IH [4]; QD Cohort, p-value 0.208): 8.2 (6.39)
- Decrease in mean SI-VAS score (adults with IH [4]; QD dosing schedule): about 33 points
- Increase in mean SI-VAS score (adults with IH [4]; both QD and BID cohorts continuing treatment, 2-week withdrawal period): less than 6 points
- Abnormal Rapid Eye Movement (REM) sleep cycles [5]: does not result in abnormal Rapid Eye Movement (REM) sleep cycles
- IH, EDS, SI, and BF symptoms [5]: improves
